The values below are quoted from earlier work in patent publication US20030199483A1, “Aldosterone receptor antagonist and alpha-adrenergic modulating agent combination therapy for prevention or treatment of pathogenic conditions” (priority 2002, published 2003).

The data set relates to myocardial fibrosis in animal models.

As to `CC(=O)S[C@@H]1CC2=CC(=O)CC[C@]2(C)[C@H]2CC[C@@]3(C)[C@@H](CC[C@@]34CCC(=O)O4)[C@H]12` [spironolactone, 17-hydroxy-7α-mercapto-3-oxo-17α-pregn-4-ene-21-carboxylic acid γ-lactone acetate], the myocardial fibrosis entry (D. Klug et al 1993) is “prevents myocardial fibrosis”. Moreover, for the setting “irrespective of the development of left ventricular hypertrophy and the presence of hypertension, C. G. Brilla et al 1993”, the fibrosis result is “prevent fibrosis”.
